Assay type: physicochemical
From the text: The method provided herein provides for a technique to more reliably screen and select an appropriate eluent protocol. In an exemplary embodiment, reference is therefore made to FIG. 2. A given solvent or solvent combination may be prepared 210. Then a desired sample, alone or premixed with the same or another solvent, may be combined with the given solvent forming a mobile phase 220. The mobile phase may then be passed through a membrane 230. As discussed more fully below, the membrane may be representative of a particular chromatographic column with respect to variables such as pore diameter. The pressure of the mobile phase as it passes through the membrane may then be measured by pressure detectors on one or both sides of the membrane 240. The pressure differential between mobile phases containing the desired sample and various solvents may be assessed at 250. […]
The pressure developed prior to the membrane as the mobile phase passes through the membrane may be, as discussed above, indicative of the dissolution between the sample and the solvent. […] In addition, by comparing the pressure developed prior to the membrane of a given mobile phase P1 with a sample to a similar sample in other and different solvents, relative solubility may again be determined. […]

pressure differential: 25 bar
Compound: c1ccc2ccccc2c1 [naphthalene]

Reference: patent US7767463B2, “Method for screening mobile phases in chromatography systems” (Cohesive Technologies, Inc., priority 2007, dated 2010)
